{
  "source": "PubChem BioAssay AID602147",
  "about": "(Vanderbilt Specialized Chemistry Center, 2011)",
  "note": "pIC50: −log10 of the molar value.",
  "data": [
    {"target": "Phospholipase D2 (Homo sapiens) (UniProt O14939)", "assay": "cellular phospholipase D2 inhibition IC50 – cell-based, dose response (AID 602147)", "conditions": "cellular PLD2 activity assay, concentration response", "values": [
      {"smiles": "O=C(NCCN1CCC2(CC1)C(=O)NCN2c1cccc(F)c1)c1cc2cc(F)ccc2[nH]1", "pIC50": 7.60},
      {"smiles": "O=C(NCCN1CCC2(CC1)C(=O)NCN2c1ccc(Cl)cc1)c1cc2cc(F)ccc2[nH]1", "pIC50": 7.30},
      {"smiles": "O=C(NCCN1CCC2(CC1)C(=O)NCN2c1ccc(Br)cc1)c1cnc2ccccc2c1", "pIC50": 6.44},
      {"smiles": "O=C(NCCN1CCC2(CC1)C(=O)NCN2c1ccc(F)cc1)c1ccc(F)cc1", "pIC50": 6.21},
      {"smiles": "O=C(NCCN1CCC2(CC1)C(=O)NCN2c1ccc(F)c(F)c1)c1ccc(F)cc1", "pIC50": 6.18},
      {"smiles": "O=C(NCCN1CCC2(CC1)C(=O)NCN2c1ccccc1)c1cc2ccccc2s1", "pIC50": 7.52},
      {"smiles": "C[C@@H](CN1CCC2(CC1)C(=O)NCN2c1cccc(F)c1)NC(=O)c1ccc2ccccc2c1", "pIC50": 7.22},
      {"smiles": "O=C(NCCN1CCC2(CC1)C(=O)NCN2c1ccc(Br)cc1)c1ccc(F)cc1", "pIC50": 5.10},
      {"smiles": "O=C(NCCN1CCC2(CC1)C(=O)NCN2c1ccc(F)cc1)c1ccc2ccccc2c1", "pIC50": 7.10},
      {"smiles": "O=C(NCCN1CCC2(CC1)C(=O)NCN2c1cccc(Cl)c1)c1ccc2ccccc2c1", "pIC50": 6.54},
      {"smiles": "O=C(C#Cc1ccccc1)NCCN1CCC2(CC1)C(=O)NCN2c1ccccc1", "pIC50": 5.79},
      {"smiles": "O=C(NCCN1CCC2(CC1)C(=O)NCN2c1ccc(F)cc1)c1cnc2ccccc2c1", "pIC50": 7.40},
      {"smiles": "O=C(NCCN1CCC2(CC1)C(=O)NCN2c1ccc(Br)cc1)c1ccc2ccccc2c1", "pIC50": 6.46},
      {"smiles": "O=C(NCCN1CCC2(CC1)C(=O)NCN2c1ccc(Cl)cc1)c1ccc2ccccc2c1", "pIC50": 6.18},
      {"smiles": "O=C(NCCN1CCC2(CC1)C(=O)NCN2c1cccc(Cl)c1)c1cc2cc(F)ccc2[nH]1", "pIC50": 7.14},
      {"smiles": "O=C(NCCN1CCC2(CC1)C(=O)NCN2c1ccc(Cl)cc1)c1ccc(F)cc1", "pIC50": 5.25},
      {"smiles": "O=C(NCCN1CCC2(CC1)C(=O)NCN2c1cccc(F)c1)c1cnc2ccccc2c1", "pIC50": 7.20},
      {"smiles": "O=C(NCCN1CCC2(CC1)C(=O)NCN2c1cccc(F)c1)c1ccc(F)cc1", "pIC50": 5.17},
      {"smiles": "COc1cc(C(=O)NCCN2CCC3(CC2)C(=O)NCN3c2ccccc2)ccc1N", "pIC50": 6.26},
      {"smiles": "O=C(NCCN1CCC2(CC1)C(=O)NCN2c1ccc(Br)cc1)c1cc2cc(F)ccc2[nH]1", "pIC50": 7.00},
      {"smiles": "O=C(NCCN1CCC2(CC1)C(=O)NCN2c1cccc(Cl)c1)c1ccc(F)cc1", "pIC50": 7.15},
      {"smiles": "O=C(NCCN1CCC2(CC1)C(=O)NCN2c1cccc(Cl)c1)c1cnc2ccccc2c1", "pIC50": 6.78},
      {"smiles": "O=C(NCCN1CCC2(CC1)C(=O)NCN2c1ccc(Cl)cc1)c1cnc2ccccc2c1", "pIC50": 6.70}
    ]}
  ]
}
